These results are taken from PMC7072352, “Venetoclax, a BCL-2 Inhibitor, Enhances the Efficacy of Chemotherapeutic Agents in Wild-Type ABCG2-Overexpression-Mediated MDR Cancer Cells” (Cancers, 2020).

The target of this experiment is T1, ABCG2 (breast cancer resistance protein, BCRP) (Homo sapiens, UniProt Q9UNQ0).
T1 construct: wild-type ABCG2 (R482) in overexpressing cell membranes
T1 sequence (Q9UNQ0 1-655): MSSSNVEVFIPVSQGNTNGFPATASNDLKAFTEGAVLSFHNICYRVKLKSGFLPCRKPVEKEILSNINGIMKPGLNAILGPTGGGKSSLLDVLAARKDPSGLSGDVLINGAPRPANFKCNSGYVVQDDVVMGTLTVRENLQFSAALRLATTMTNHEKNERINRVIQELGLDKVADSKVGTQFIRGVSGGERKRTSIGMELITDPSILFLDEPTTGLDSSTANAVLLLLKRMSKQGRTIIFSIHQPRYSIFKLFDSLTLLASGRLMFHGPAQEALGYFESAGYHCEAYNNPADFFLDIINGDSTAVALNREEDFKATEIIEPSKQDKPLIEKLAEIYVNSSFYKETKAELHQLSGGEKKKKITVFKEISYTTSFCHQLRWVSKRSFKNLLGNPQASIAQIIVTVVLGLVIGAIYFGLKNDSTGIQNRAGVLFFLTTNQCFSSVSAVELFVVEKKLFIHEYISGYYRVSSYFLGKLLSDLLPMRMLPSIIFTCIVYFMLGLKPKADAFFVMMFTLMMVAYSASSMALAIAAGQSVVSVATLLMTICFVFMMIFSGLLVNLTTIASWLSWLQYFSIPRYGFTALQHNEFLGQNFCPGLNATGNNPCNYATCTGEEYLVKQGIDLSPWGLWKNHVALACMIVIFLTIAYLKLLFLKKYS
In words: vanadate-sensitive ATPase assay in ABCG2-overexpressing cell membranes; [3H]-mitoxantrone accumulation and efflux in cells. It is filed as biochemical.

For orientation: IC50 means the concentration at which inhibition is half-maximal. Higher therefore signals weaker potency in that assay.

Take `CC1(C)CCC(CN2CCN(c3ccc(C(=O)NS(=O)(=O)c4ccc(NCC5CCOCC5)c([N+](=O)[O-])c4)c(Oc4cnc5[nH]ccc5c4)c3)CC2)=C(c2ccc(Cl)cc2)C1` [venetoclax]: the midpoint of inhibition, the IC50, lay at 4.78 µM.
